Measured values as given in the NIST ThermoML archive (doi:10.1016/j.jct.2016.01.006).
Several values for one entry are separate records, joined by “and”; a condition that tells them apart may be missing. Equal values may be shown once.

Conditions: Crystal, Calculated from knudsen effusion weight loss

CCOC(=O)c1cc2ccccc2[nH]1 [ethyl 1H-indole-2-carboxylate]
Conditions	vapor or sublimation pressure
326.18 K	7.9e-05 kPa and 7.4e-05 kPa
328.21 K	0.000101 kPa and 9.8e-05 kPa and 9.1e-05 kPa
330.12 K	0.000123 kPa and 0.000122 kPa and 0.000126 kPa
332.18 K	0.000155 kPa and 0.000154 kPa and 0.000157 kPa
334.22 K	0.000202 kPa and 0.000196 kPa and 0.000203 kPa
336.12 K	0.000256 kPa and 0.000249 kPa and 0.000248 kPa
338.18 K	0.000312 kPa and 0.000322 kPa
340.21 K	0.000399 kPa and 0.000394 kPa and 0.00041 kPa
342.12 K	0.000501 kPa and 0.000503 kPa and 0.000504 kPa
344.16 K	0.000627 kPa and 0.000614 kPa and 0.000659 kPa
346.18 K	0.000808 kPa and 0.000835 kPa and 0.000768 kPa
348.11 K	0.000988 kPa and 0.000995 kPa and 0.000981 kPa

COC(=O)c1c[nH]c2ccccc12 [methyl 1H-indole-3-carboxylate]
Conditions	vapor or sublimation pressure
353.17 K	0.000108 kPa and 9.8e-05 kPa and 9.7e-05 kPa
355.12 K	0.00013 kPa and 0.000127 kPa and 0.000122 kPa
357.1 K	0.000154 kPa and 0.000153 kPa and 0.000148 kPa
359.16 K	0.000179 kPa and 0.000181 kPa and 0.000189 kPa
361.11 K	0.000232 kPa and 0.000226 kPa and 0.000234 kPa
363.1 K	0.000283 kPa and 0.000285 kPa and 0.000284 kPa
365.16 K	0.000351 kPa and 0.000347 kPa and 0.000371 kPa
367.12 K	0.000439 kPa and 0.000427 kPa and 0.000452 kPa
369.1 K	0.000528 kPa and 0.000531 kPa and 0.000514 kPa
371.16 K	0.000637 kPa and 0.000644 kPa and 0.000707 kPa
373.09 K	0.000799 kPa and 0.000822 kPa and 0.000792 kPa
375.09 K	0.00096 kPa and 0.000992 kPa and 0.000977 kPa
